How the values were obtained:
Assay in all cases: Drug affinity chromatography with c-ponatinib and LC-MS/MS (ponatinib interactome)
Format in all cases: binding
[1] = target: T1, proteins of U2OS cell lysate (Homo sapiens, UniProt Q14204); conditions: DYNC1H1, Cytoplasmic dynein 1 heavy chain 1
T1 construct: Proteins enriched by c-ponatinib from U2OS cell lysate; endogenous in cells; host or cells: U2OS cell lysate
Outline: (§1)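 U2OS cell lysate in NP-40 lysis buffer (2 mg protein per pulldown) was incubated with amine-derivatized NHS beads for 2 h at 4 °C. Bound proteins were washed, eluted with 100 mM formic acid, reduced, alkylated and trypsin-digested, then identified by nano-UPLC–MS/MS on Orbitrap instruments with a 60 min gradient.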

[2] = target: T2, proteins of U2OS cell lysate (Homo sapiens, UniProt P22234); conditions: PAICS, Multifunctional protein ADE2
T2 construct: Proteins enriched by c-ponatinib from U2OS cell lysate; endogenous in cells; host or cells: U2OS cell lysate
Outline: as §1

[3] = target: T3, proteins of U2OS cell lysate (Homo sapiens, UniProt Q09028); conditions: RBBP4;RBBP7, Histone-binding protein RBBP4
T3 construct: Proteins enriched by c-ponatinib from U2OS cell lysate; endogenous in cells; host or cells: U2OS cell lysate
T3 sequence (Q09028 whole entry): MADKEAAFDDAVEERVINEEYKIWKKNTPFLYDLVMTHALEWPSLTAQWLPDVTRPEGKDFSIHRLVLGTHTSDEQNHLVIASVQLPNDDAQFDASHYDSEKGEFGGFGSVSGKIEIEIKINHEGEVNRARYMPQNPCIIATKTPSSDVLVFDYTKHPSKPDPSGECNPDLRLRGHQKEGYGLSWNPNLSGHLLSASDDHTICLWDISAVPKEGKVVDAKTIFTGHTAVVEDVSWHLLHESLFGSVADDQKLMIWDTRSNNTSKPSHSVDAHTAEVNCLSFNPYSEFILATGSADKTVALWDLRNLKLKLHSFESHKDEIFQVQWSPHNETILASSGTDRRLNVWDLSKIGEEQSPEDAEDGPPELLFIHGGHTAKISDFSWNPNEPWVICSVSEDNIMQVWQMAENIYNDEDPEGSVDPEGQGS
Outline: as §1

[4] = target: T4, proteins of U2OS cell lysate (Homo sapiens, UniProt P49773); conditions: HINT1, Histidine triad nucleotide-binding protein 1
T4 construct: Proteins enriched by c-ponatinib from U2OS cell lysate; endogenous in cells; host or cells: U2OS cell lysate
T4 sequence (P49773 whole entry): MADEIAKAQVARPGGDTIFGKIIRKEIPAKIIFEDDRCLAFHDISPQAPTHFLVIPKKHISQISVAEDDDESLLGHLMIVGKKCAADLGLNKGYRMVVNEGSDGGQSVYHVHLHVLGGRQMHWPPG
Outline: as §1

[5] = target: T5, proteins of U2OS cell lysate (Homo sapiens, UniProt Q9UJZ1); conditions: STOML2, Stomatin-like protein 2, mitochondrial
T5 construct: Proteins enriched by c-ponatinib from U2OS cell lysate; endogenous in cells; host or cells: U2OS cell lysate
Outline: as §1

[6] = target: T6, proteins of U2OS cell lysate (Homo sapiens, UniProt P27708); conditions: CAD, CAD protein
T6 construct: Proteins enriched by c-ponatinib from U2OS cell lysate; endogenous in cells; host or cells: U2OS cell lysate
T6 sequence (P27708 whole entry): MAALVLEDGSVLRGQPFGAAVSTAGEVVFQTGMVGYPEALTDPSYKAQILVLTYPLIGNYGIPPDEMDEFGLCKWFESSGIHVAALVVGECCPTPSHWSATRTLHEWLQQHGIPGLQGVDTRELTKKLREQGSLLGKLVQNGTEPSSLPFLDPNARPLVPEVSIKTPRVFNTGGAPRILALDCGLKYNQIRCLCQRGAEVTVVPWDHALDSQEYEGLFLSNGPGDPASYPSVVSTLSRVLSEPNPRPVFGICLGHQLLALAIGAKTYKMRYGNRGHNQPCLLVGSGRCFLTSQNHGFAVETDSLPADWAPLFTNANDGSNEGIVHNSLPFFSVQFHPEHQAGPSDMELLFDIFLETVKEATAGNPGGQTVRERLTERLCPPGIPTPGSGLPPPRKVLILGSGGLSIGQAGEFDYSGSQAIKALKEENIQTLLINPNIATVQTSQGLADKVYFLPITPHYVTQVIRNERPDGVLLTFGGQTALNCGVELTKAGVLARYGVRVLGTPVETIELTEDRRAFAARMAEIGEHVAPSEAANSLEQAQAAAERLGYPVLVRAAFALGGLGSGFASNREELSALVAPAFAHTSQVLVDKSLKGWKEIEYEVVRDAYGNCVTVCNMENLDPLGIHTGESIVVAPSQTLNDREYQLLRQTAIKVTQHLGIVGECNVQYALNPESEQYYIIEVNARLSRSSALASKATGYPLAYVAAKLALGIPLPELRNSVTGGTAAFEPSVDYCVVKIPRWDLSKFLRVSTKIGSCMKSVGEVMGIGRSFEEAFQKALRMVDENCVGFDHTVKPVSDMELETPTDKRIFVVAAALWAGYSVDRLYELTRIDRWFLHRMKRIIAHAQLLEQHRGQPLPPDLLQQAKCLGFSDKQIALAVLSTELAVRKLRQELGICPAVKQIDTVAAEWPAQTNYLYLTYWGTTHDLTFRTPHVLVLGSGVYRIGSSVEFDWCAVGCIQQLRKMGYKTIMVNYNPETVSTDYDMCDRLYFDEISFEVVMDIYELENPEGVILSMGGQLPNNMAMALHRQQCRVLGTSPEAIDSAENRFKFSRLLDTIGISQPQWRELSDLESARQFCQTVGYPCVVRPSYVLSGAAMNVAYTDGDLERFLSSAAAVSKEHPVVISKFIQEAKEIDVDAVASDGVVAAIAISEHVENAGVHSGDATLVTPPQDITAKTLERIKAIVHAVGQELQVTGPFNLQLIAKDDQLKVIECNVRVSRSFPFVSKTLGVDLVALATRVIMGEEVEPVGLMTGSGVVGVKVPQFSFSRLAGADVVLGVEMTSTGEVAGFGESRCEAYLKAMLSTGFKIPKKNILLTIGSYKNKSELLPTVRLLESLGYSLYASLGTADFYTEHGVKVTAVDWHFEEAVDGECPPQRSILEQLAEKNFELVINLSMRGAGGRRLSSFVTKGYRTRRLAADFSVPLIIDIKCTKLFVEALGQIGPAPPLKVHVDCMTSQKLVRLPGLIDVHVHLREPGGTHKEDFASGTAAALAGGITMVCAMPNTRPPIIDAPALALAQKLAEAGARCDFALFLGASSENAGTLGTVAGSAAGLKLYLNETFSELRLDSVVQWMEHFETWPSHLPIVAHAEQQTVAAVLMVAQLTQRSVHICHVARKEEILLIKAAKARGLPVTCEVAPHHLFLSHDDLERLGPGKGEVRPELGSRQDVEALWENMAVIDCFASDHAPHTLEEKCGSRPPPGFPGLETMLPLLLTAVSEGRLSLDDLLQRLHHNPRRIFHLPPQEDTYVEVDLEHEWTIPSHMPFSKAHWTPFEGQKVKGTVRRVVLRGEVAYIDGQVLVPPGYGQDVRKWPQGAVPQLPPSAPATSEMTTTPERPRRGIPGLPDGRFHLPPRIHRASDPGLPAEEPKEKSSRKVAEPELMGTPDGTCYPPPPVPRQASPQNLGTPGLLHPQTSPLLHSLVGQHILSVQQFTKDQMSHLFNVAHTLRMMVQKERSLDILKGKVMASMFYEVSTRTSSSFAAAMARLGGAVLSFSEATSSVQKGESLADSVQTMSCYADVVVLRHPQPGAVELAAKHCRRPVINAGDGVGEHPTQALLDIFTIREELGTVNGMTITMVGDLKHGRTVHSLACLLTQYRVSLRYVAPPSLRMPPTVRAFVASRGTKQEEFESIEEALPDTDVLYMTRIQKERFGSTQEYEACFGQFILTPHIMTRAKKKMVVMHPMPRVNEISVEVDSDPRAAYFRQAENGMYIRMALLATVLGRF
Outline: as §1

[7] = target: T7, proteins of U2OS cell lysate (Homo sapiens, UniProt O94906); conditions: PRPF6, Pre-mRNA-processing factor 6
T7 construct: Proteins enriched by c-ponatinib from U2OS cell lysate; endogenous in cells; host or cells: U2OS cell lysate
Outline: as §1

[8] = target: T8, proteins of U2OS cell lysate (Homo sapiens, UniProt Q15233); conditions: NONO, Non-POU domain-containing octamer-binding protein
T8 construct: Proteins enriched by c-ponatinib from U2OS cell lysate; endogenous in cells; host or cells: U2OS cell lysate
Outline: as §1

[9] = target: T9, proteins of U2OS cell lysate (Homo sapiens, UniProt Q8N3V7); conditions: SYNPO, Synaptopodin
T9 construct: Proteins enriched by c-ponatinib from U2OS cell lysate; endogenous in cells; host or cells: U2OS cell lysate
Outline: as §1

[10] = target: T10, proteins of U2OS cell lysate (Homo sapiens, UniProt Q07065); conditions: CKAP4, Cytoskeleton-associated protein 4
T10 construct: Proteins enriched by c-ponatinib from U2OS cell lysate; endogenous in cells; host or cells: U2OS cell lysate
Outline: as §1

[11] = target: T11, proteins of U2OS cell lysate (Homo sapiens, UniProt P06748); conditions: NPM1, Nucleophosmin
T11 construct: Proteins enriched by c-ponatinib from U2OS cell lysate; endogenous in cells; host or cells: U2OS cell lysate
Outline: as §1

[12] = target: T12, proteins of U2OS cell lysate (Homo sapiens, UniProt Q16531); conditions: DDB1, DNA damage-binding protein 1
T12 construct: Proteins enriched by c-ponatinib from U2OS cell lysate; endogenous in cells; host or cells: U2OS cell lysate
Outline: as §1

[13] = target: T13, proteins of U2OS cell lysate (Homo sapiens, UniProt Q01082); conditions: SPTBN1, Spectrin beta chain, non-erythrocytic 1
T13 construct: Proteins enriched by c-ponatinib from U2OS cell lysate; endogenous in cells; host or cells: U2OS cell lysate
T13 sequence (Q01082 whole entry): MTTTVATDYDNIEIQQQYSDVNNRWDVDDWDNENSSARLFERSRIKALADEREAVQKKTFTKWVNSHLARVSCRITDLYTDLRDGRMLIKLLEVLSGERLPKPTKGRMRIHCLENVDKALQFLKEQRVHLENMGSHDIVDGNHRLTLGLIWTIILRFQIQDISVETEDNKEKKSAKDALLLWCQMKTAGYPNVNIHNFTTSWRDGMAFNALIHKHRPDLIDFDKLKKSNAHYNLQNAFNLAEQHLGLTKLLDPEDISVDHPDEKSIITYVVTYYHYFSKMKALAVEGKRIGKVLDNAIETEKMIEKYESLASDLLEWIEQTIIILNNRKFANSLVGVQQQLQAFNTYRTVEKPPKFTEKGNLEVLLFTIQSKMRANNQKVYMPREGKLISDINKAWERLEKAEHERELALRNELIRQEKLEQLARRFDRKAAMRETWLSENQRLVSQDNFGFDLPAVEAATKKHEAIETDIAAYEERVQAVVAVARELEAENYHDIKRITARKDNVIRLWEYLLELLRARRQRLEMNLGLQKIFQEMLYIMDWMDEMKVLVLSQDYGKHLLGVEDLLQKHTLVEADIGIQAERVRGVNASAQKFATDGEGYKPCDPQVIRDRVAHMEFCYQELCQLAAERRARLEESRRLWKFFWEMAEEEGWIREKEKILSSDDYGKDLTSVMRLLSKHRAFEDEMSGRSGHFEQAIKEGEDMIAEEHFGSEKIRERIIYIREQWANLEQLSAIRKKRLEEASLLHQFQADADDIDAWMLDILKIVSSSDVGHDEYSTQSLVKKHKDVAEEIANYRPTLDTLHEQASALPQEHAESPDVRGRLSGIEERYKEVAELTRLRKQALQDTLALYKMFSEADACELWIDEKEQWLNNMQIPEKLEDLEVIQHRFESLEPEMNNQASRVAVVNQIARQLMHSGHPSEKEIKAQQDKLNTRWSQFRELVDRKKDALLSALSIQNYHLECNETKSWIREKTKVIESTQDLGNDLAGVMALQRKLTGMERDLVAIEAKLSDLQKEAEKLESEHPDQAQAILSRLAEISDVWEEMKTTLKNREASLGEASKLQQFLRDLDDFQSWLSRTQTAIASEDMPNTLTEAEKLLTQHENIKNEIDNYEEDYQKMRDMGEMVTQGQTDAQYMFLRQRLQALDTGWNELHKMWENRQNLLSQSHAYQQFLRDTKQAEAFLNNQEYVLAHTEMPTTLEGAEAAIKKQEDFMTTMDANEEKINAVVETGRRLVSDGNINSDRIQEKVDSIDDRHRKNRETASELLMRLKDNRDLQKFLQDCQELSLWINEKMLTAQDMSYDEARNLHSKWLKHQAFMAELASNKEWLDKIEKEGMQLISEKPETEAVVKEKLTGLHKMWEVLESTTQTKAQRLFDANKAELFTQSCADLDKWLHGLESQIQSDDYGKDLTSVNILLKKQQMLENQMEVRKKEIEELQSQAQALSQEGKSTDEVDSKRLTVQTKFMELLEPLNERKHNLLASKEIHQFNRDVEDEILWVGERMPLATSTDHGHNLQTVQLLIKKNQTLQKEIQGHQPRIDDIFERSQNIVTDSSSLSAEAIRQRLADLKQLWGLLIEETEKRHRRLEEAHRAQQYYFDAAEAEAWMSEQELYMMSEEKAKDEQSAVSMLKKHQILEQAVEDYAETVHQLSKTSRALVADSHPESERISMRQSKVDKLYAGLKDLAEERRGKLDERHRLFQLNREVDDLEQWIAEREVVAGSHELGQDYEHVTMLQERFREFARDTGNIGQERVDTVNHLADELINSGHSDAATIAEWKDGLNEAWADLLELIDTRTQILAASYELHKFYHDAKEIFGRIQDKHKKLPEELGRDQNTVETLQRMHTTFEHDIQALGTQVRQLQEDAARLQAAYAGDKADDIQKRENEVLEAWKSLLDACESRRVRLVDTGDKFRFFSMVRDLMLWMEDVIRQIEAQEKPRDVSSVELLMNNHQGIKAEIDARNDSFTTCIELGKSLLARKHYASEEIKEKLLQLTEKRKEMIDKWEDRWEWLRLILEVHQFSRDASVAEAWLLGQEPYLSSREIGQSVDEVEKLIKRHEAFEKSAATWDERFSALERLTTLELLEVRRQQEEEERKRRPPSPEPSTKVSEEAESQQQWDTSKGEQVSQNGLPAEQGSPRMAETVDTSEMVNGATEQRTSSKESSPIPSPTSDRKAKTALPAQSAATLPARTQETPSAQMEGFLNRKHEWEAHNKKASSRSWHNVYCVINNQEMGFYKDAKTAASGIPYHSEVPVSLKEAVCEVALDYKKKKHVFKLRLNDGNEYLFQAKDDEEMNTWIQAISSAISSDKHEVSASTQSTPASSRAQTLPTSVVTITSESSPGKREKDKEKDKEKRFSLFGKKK
Outline: as §1

[14] = target: T14, proteins of U2OS cell lysate (Homo sapiens, UniProt P08670); conditions: VIM, Vimentin
T14 construct: Proteins enriched by c-ponatinib from U2OS cell lysate; endogenous in cells; host or cells: U2OS cell lysate
Outline: as §1

[15] = target: T15, proteins of U2OS cell lysate (Homo sapiens, UniProt P51149); conditions: RAB7A, Ras-related protein Rab-7a
T15 construct: Proteins enriched by c-ponatinib from U2OS cell lysate; endogenous in cells; host or cells: U2OS cell lysate
Outline: as §1

[16] = target: T16, proteins of U2OS cell lysate (Homo sapiens, UniProt P62191); conditions: PSMC1, 26S protease regulatory subunit 4
T16 construct: Proteins enriched by c-ponatinib from U2OS cell lysate; endogenous in cells; host or cells: U2OS cell lysate
Outline: as §1

[17] = target: T17, proteins of U2OS cell lysate (Homo sapiens, UniProt P07814); conditions: EPRS, Bifunctional glutamate/proline--tRNA ligase
T17 construct: Proteins enriched by c-ponatinib from U2OS cell lysate; endogenous in cells; host or cells: U2OS cell lysate
Outline: as §1

[18] = target: T18, proteins of U2OS cell lysate (Homo sapiens, UniProt P29317); conditions: EPHA2, Ephrin type-A receptor 2
T18 construct: Proteins enriched by c-ponatinib from U2OS cell lysate; endogenous in cells; host or cells: U2OS cell lysate
Outline: as §1

[19] = target: T19, proteins of U2OS cell lysate (Homo sapiens, UniProt P55884); conditions: captured protein EIF3B, Rank 123
T19 construct: Proteins enriched by c-ponatinib from U2OS cell lysate; endogenous in cells; host or cells: U2OS cell lysate
Outline: as §1

Compound | Average LFQ PON_WT [1] | Average LFQ PON_WT [2] | Average LFQ PON_WT [3] | Average LFQ PON_WT [4] | Average LFQ PON_WT [5] | Average LFQ PON_WT [6] | Average LFQ PON_WT [7] | Average LFQ PON_WT [8] | Average LFQ PON_WT [9] | Average LFQ PON_WT [10] | Average LFQ PON_WT [11] | Average LFQ PON_WT [12] | Average LFQ PON_WT [13] | Average LFQ PON_WT [14] | Average LFQ PON_WT [15] | Average LFQ PON_WT [16] | Average LFQ PON_WT [17] | Average LFQ PON_WT [18] | Average LFQ intensity [19]
Cc1ccc(C(=O)Nc2ccc(CN3CCN(C)CC3)c(C(F)(F)F)c2)cc1C#Cc1cnc2cccnn12 [PON] | 24.2612 | 21.2772 | 21.1647 | 21.3958 | 26.1635 | 21.3466 | 19.4979 | 20.9839 | 23.2218 | 21.3006 | 21.1903 | 20.7257 | 25.171 | 26.7986 | 20.9612 | 23.3461 | 20.1996 | 29.5288 | –
Cc1ccc(C(=O)Nc2ccc(CN3CCN(CCCN)CC3)c(C(F)(F)F)c2)cc1C#Cc1cnc2cccnn12 [c-ponatinib, reference compound] | – | – | – | – | – | – | – | – | – | – | – | – | – | – | – | – | – | – | 23.0265

From article PMC6120666 (The EMBO Journal, 2018)
